According to patent publication US20250109127A1, “METHODS OF USE OF PHENOXYPROPYLAMINE COMPOUNDS TO TREAT DEPRESSION” (Minerva Neurosciences, Inc., priority 2013, published 2025):
Several values for one entry are separate records, joined by “and”; a condition that tells them apart may be missing. Equal entries are not always repeated. Structures can show the parent of a compound that is named as a salt.

Test system: HVA release in the rat prefrontal cortex
Test: Microdialysis: HVA release in prefrontal cortex after I.P. administration
Format: in vivo
Details: for HVA (% of respective basal), individual animal: 0.1 mg/kg I.P., c2-c9 = R#13,14,20,19,25,26,31,32; for HVA (% of respective basal), individual animal / HVA release, individual animals: hydrochloride; for HVA release, MEAN / HVA release, individual animals: 0.3 mg/kg I.P.; for HVA release, MEAN: n = 8; for HVA release, individual animals: one column per animal R#11,12,18,23,29,30,17,24
Method: The aim of the study was to evaluate, using microdialysis, the effects of an intraperitoneal (I.P.) administration in rats of three different doses of SON-117 on dopamine and its metabolites, serotonin and its metabolite (5-HIAA), and norepinephrine levels in prefrontal cortex.
Thirty-two adult male Wistar rats were used for the whole study (4 groups of eight animals planned for the study, Table 1).
Surgery was performed on rats weighing about 300 g at the beginning of the experiments. Rats were anaesthetized with Ketamine (50 mg/kg) & Xylazine (15 mg/kg) by intramuscular administration. The animals were placed in a stereotaxic apparatus in the flat-skull position at a constant setting of −3.3 mm between ear bars and the incisor bar. The animals were treated with a local anesthesic (xylocaine 1%, Astra Zeneca) and an analgesic (Temgesic, from Schering Plough, 0.05 mg/kg, s.c.). A rostrocaudal midline incision was made with a lancet to expose the dorsal skull surface. The “stereotaxic zero” was defined by the Bregma in accordance with Paxinos and Watson's atlas (1986). A hole was drilled in the skull with a drill and the meninges were pierced with a sterile needle to implant a CMA12 guide cannula which later received the dialysis probe.
Coordinates used for implanting guide cannula in prefrontal cortex from Bregma were anteroposterior 3.7 mm, mediolateral 0.8 mm, and dorsoventral −2 mm (top of the probe was at −5 mm). The guide cannula was fixed to the skull with two stainless steel screws (1.88 mm outside diameter) anchored. An application of dental cement was added. A plastic collar allowed each animal to be tethered to a Swivel assembly of the CMA 120 awake animal system. Following surgery, rats were kept in individual cages and allowed to recover for a minimum of 3-5 days before the experimentation. The rats were handled and put in plastic bowl for 10 min at least every day to habituate the animals to their new environment for the dialysis. An I.P. administration with saline was also performed every day.
Dialysis probes (CMA12/3 mm, membrane, 20 kD cut-off, Carnegie Medicine, Stockholm, Sweden), were carefully washed before inserting into the guide cannula. The wash was performed with the artificial cerebrospinal fluid (aCSF) medium (NaCl 147 mM, KCl 2.7 mM, CaCl2 1.2 mM, MgCl2 0.85 mM) at room temperature. The dialysis system was then equilibrated at 20° C. at a perfusion rate of 1 μl/min with a Carnegie pump (CMA100). All catheters (FEP tubing, internal volume of 1.2 μl/10 cm, and tubing adaptors) used for microdialysis were treated in the same conditions.
The probes duly prepared were inserted into the guide cannula and the CMA120 Swivel assembly secured to the animal using a plastic collar. Flow through the dialysis probe with aCSF was maintained at a rate of 1 μl/min during the whole experimentation. The first four fractions (corresponding to 2 hours) were discarded to avoid the effects of parenchymal disturbance and to ensure that an approximate steady-state level was reached. Fractions were then collected over a period of 8.5 h during which time the animals remained quiet. The dialysates were automatically collected with an autosampler (microfraction collector CMA 140, Carnegie Medicin) and stored at −80° C. until analysis. […] Perfusion was then maintained for 7 hours with aCSF. The dialysates (30 μl) were collected into 300 μl vials, transferred into dry ice and then kept frozen (−80° C.) until analysis. Frozen samples were shipped to a partner for analysis. At the end of the microdialysis study, a PBS with colored ink was perfused through the probe in order to visualize the dialyzed area.
Catecholamine assay: Concentrations of dopamine, DOPAC, HVA, 5-HIAA, 5-HT, and norepinephrin were determined for each sample by HPLC coupled with electrochemical detection.

For `Cc1nnc(-c2cc3c(OC[C@@H](O)CN4CCC(c5ccc(Cl)c(Cl)c5)CC4)cccc3o2)o1` [SON-117, (S)-1-(4-(3,4-dichlorophenyl)piperidino)-3-(2-(5-methyl-1,3,4-oxadiazol-2-yl)benzo(b)furan-4-yloxy)-2-propanol hydrochloride], the “HVA (% of respective basal), individual animal” value (from here on “HVA (% of respective basal)”) (T30-T1 h) was 116.26 % of respective basal and 107.34 % of respective basal and 108.66 % of respective basal and 130.85 % of respective basal and 120.36 % of respective basal and 141.88 % of respective basal and 123.41 % of respective basal and 95.76 % of respective basal, the “HVA (% of respective basal)” value (T1 h 30-T2 h) was 97.75 % of respective basal and 109.52 % of respective basal and 89.93 % of respective basal and 170.371 % of respective basal and 123.81 % of respective basal and 97.71 % of respective basal and 126.7 % of respective basal and 80.99 % of respective basal and the “HVA (% of respective basal)” value (T1 h-T1 h 30) was 124.25 % of respective basal and 162.58 % of respective basal and 98.567 % of respective basal and 241.96 % of respective basal and 130.93 % of respective basal and 153.68 % of respective basal and 123.58 % of respective basal and 80.09 % of respective basal. The “HVA (% of respective basal)” value (T2 h 30-T3 h) was 88.46 % of respective basal and 123.19 % of respective basal and 75.76 % of respective basal and 151.82 % of respective basal and 149.48 % of respective basal and 157.13 % of respective basal and 121.53 % of respective basal and 21.68 % of respective basal, the “HVA (% of respective basal)” value (T2 h-T2 h 30) was 83.46 % of respective basal and 121.21 % of respective basal and 80.97 % of respective basal and 145.084 % of respective basal and 132.39 % of respective basal and 106.30 % of respective basal and 139.18 % of respective basal and 53.45 % of respective basal and the “HVA (% of respective basal)” value (T3 h 30-T4 h) was 94.31 % of respective basal and 116.57 % of respective basal and 55.89 % of respective basal and 152.08 % of respective basal and 193.52 % of respective basal and 154.95 % of respective basal and 123.32 % of respective basal and 16.37 % of respective basal. For the same compound, the “HVA (% of respective basal)” value (T3 h-T3 h 30) was 135.42 % of respective basal and 99.88 % of respective basal and 73.47 % of respective basal and 137.35 % of respective basal and 137.07 % of respective basal and 115.93 % of respective basal and 133.06 % of respective basal and 20.75 % of respective basal, the “HVA (% of respective basal)” value (T4 h 30-T5 h) was 128.74 % of respective basal and 102.18 % of respective basal and 100.29 % of respective basal and 40.6 % of respective basal and 130.76 % of respective basal and 136.09 % of respective basal and 114.46 % of respective basal and 68.31 % of respective basal and the “HVA (% of respective basal)” value (T4 h-T4 h 30) was 149.58 % of respective basal and 107.72 % of respective basal and 55.17 % of respective basal and 173.59 % of respective basal and 155.95 % of respective basal and 149.97 % of respective basal and 148.42 % of respective basal and 76.98 % of respective basal. The “HVA (% of respective basal)” value (T5 h 30-T6 h) was 146.23 % of respective basal and 127.63 % of respective basal and 35.72 % of respective basal and 136.22 % of respective basal and 116.99 % of respective basal and 123.45 % of respective basal and 128.36 % of respective basal and 65.12 % of respective basal, the “HVA (% of respective basal)” value (T5 h-T5 h 30) was 143.02 % of respective basal and 149.35 % of respective basal and 36.52 % of respective basal and 131.08 % of respective basal and 120.77 % of respective basal and 117.84 % of respective basal and 126.17 % of respective basal and 77.12 % of respective basal and the “HVA (% of respective basal)” value (T6 h 30-T7 h) was 155.64 % of respective basal and 142.57 % of respective basal and 54.30 % of respective basal and 131.80 % of respective basal. For the same compound, the “HVA (% of respective basal)” value (T6 h-T6 h 30) was 149.66 % of respective basal and 147.03 % of respective basal and 11.88 % of respective basal and 133.32 % of respective basal and 118.76 % of respective basal and 122.29 % of respective basal and 121.40 % of respective basal and 66.42 % of respective basal, the “HVA release, MEAN” value (T0-T30 min) was 107.04 % of respective basal and the “HVA release, MEAN” value (T30-T1 h) was 94.37 % of respective basal. The “HVA release, individual animals” value (T30-T1 h) was 76.21 % of respective basal and 55.15 % of respective basal and 89.64 % of respective basal and 100.95 % of respective basal and 83.39 % of respective basal and 95.38 % of respective basal and 149.36 % of respective basal and 104.86 % of respective basal, the “HVA release, MEAN” value (T1 h 30-T2 h) was 85.59 % of respective basal and the “HVA release, individual animals” value (T1 h 30-T2 h) was 89.77 % of respective basal and 59.14 % of respective basal and 96.89 % of respective basal and 103.49 % of respective basal and 82.49 % of respective basal and 54.42 % of respective basal and 95.23 % of respective basal and 103.32 % of respective basal. The “HVA release, MEAN” value (T1 h-T1 h 30) was 120.85 % of respective basal, the “HVA release, individual animals” value (T1 h-T1 h 30) was 90.43 % of respective basal and 68.90 % of respective basal and 103.82 % of respective basal and 116.53 % of respective basal and 80.54 % of respective basal and 85.72 % of respective basal and 305.74 % of respective basal and 115.15 % of respective basal and the “HVA release, MEAN” value (T2 h 30-T3 h) was 107.95 % of respective basal. For the same compound, the “HVA release, individual animals” value (T2 h 30-T3 h) was 72.76 % of respective basal and 59.51 % of respective basal and 90.20 % of respective basal and 316.58 % of respective basal and 70.98 % of respective basal and 94.71 % of respective basal and 54.48 % of respective basal and 104.42 % of respective basal, the “HVA release, MEAN” value (T2 h-T2 h 30) was 85.33 % of respective basal and the “HVA release, individual animals” value (T2 h-T2 h 30) was 68.39 % of respective basal and 70.39 % of respective basal and 95.76 % of respective basal and 101.52 % of respective basal and 72.96 % of respective basal and 85.03 % of respective basal and 97.42 % of respective basal and 91.18 % of respective basal.
